Assays:
C. parvum [1] = test: C. parvum in vitro EC50 assay in HCT-8 cells; assay type: cell-based; conditions: Cryptosporidium parvum, HCT8 cells, 24 hr, Mean +/- S.D., N = 3, 9 pt curve
Procedure: (§1) In vitro assays measuring the EC50 value for C. parvum infection may be run to determine the efficacy of the compounds. For example, human ileocecal adenocarcinoma (HCT-8) cells can be obtained from ATCC and maintained in T-75 tissue culture flasks with RPMI 1640 medium with HEPES, sodium pyruvate (1 mM), and L-glutamine (ATCC) supplemented with 10% horse serum (ATCC) and 120 U/ml penicillin and 120 μg/ml streptomycin. Cells can be plated into 384-well, tissue culture-treated, black-walled, clearbottom microwell plates (BD Falcon) at a density of 8,850 cells/well and allowed to grow to confluence. The cells may then be inoculated with 5.5×10^3 primed C. parvum oocysts (Bunchgrass Farms, Deary, ID) suspended in inoculation medium (RPMI 1640 without horse serum). Oocysts may be primed for excystation by following a previously described protocol (J. Eukaryot. Microbiol. 46:56S-57S). Briefly, oocysts can be treated for 10 min with 10 mM HCl at 37° C., centrifuged, and treated with a 2 mM solution of sodium taurocholate (Sigma-Aldrich) in phosphate-buffered saline (PBS) with Ca^2+ and Mg^2+. The suspension can be incubated for 10 min at 16° C. and then diluted in inoculation medium and added to each well. Infected cells are incubated at 37° C. for 3 h, at which point an equal volume of growth medium containing 20% horse serum (total serum concentration of 10%) is produced. Compounds are diluted and assayed at fixed doses (e.g., 0.12, 0.37, 1.1, 3.3, and 10 μM, with each concentration, n=14) for the generation of EC50 curves. In the case of final EC50 curves, three wells are left uninfected but treated with each of the corresponding concentrations of the compound to assess for background staining. All curves are generated using the log[inhibitor] versus response variable slope equation in GraphPad Prism, with the bottom constraint set equal to 0.
(§2) Such assays were prepared on HTC-8 cells and ALI. Table 2 illustrates measured EC50 at various time points.

C. parvum [2] = test: C. parvum in vitro EC50 assay in ALI culture; assay type: cell-based; conditions: Cryptosporidium parvum, 48 hr, Mean +/- S.D., N = 2, 5 pt curve
Procedure: as §1, §2
Briefly, i3T3 cells were plated in CM media. Spheroids were plated on the cells. […]

Structure (SMILES) | EC50 (C. parvum [1]) [µM] | EC50 (C. parvum [2]) [µM]
COc1ccc(NC(=O)N2CCCCN3[C@H](CN(C)S(C)(=O)=O)[C@H](c4ccc(C#Cc5ccccc5)cc4)[C@@H]3C2)cc1 [Compound 1, (8R,9R,10S)-N-(4-methoxyphenyl)-10-((N-methylmethylsulfonamido)methyl)-9-(4-(phenylethynyl)phenyl)-1,6-diazabicyclo[6.2.0]decane-6-carboxamide] | 0.011 ± 0.003 | 0.028 ± 0.002
COc1ccc(NC(=O)N2CCCCN3[C@H](CN(C)C)[C@H](c4ccc(C#Cc5ccccc5)cc4)[C@@H]3C2)cc1 [Compound 2, (8R,9S,10S)-10-((dimethylamino)methyl)-N-(4-methoxyphenyl)-9-(4-(phenylethynyl)phenyl)-1,6-diazabicyclo[6.2.0]decane-6-carboxamide] | 0.033 ± 0.009 | 0.113 ± 0.015
CC(=O)Oc1ccccc1C(=O)Nc1ncc([N+](=O)[O-])s1 [Nitazoxanide, reference compound] | 2.19 ± 0.378 | 25.9 ± 4.14

— patent publication US12414935B2, “Compounds and methods for the treatment of parasitic diseases” (WASHINGTON UNIVERSITY, priority 2019, dated 2025)
